Laboratory results reported in patent US20210317140A1, “Heterocyclic Compounds and Methods of Use” (MEDIVATION TECHNOLOGIES, INC, priority 2013, published 2021).

Tests used:
PI3Kδ = biological target: T1, PI3Kδ (Homo sapiens, UniProt O00329); experiment: PI3Kδ kinase assay (HTRF, PIP3 detection); format: biochemical; conditions: for IC50: 10 dose IC50, 10 μM ATP; for PI3Kδ @ 0.1 μM (% Inh): 0.1 μM compound; for PI3Kδ @ 1 μM (% Inh): 1 μM compound
T1 construct: purchased Reaction Biology Corporation
Procedure, shortened: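 PIP3 formation read by loss of energy transfer as it displaces biotin-PIP3 from a Eu anti-GST/GST-PH/streptavidin-APC complex, calibrated against PIP3 standards.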

BTK = biological target: T2, BTK (Homo sapiens, UniProt Q06187); experiment: BTK kinase assay (HotSpot, 33P ATP); format: biochemical; conditions: for IC50: 10 dose IC50, 10 μM ATP; for BTK @ 0.1 μM (% Inh): 0.1 μM compound; for BTK @ 1 μM (% Inh): 1 μM compound
T2 construct: purchased Reaction Biology Corporation
Procedure, shortened: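 In 20 mM Hepes (pH 7.5) with 10 mM MgCl2, 1 mM EGTA, 0.1 mM Na3VO4, 2 mM DTT, 0.02% Brij35, 0.02 mg/mL BSA and 1% DMSO, kinase and substrate were exposed to ten compound doses for 15–20 min.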

T2 sequence (Q06187 whole entry): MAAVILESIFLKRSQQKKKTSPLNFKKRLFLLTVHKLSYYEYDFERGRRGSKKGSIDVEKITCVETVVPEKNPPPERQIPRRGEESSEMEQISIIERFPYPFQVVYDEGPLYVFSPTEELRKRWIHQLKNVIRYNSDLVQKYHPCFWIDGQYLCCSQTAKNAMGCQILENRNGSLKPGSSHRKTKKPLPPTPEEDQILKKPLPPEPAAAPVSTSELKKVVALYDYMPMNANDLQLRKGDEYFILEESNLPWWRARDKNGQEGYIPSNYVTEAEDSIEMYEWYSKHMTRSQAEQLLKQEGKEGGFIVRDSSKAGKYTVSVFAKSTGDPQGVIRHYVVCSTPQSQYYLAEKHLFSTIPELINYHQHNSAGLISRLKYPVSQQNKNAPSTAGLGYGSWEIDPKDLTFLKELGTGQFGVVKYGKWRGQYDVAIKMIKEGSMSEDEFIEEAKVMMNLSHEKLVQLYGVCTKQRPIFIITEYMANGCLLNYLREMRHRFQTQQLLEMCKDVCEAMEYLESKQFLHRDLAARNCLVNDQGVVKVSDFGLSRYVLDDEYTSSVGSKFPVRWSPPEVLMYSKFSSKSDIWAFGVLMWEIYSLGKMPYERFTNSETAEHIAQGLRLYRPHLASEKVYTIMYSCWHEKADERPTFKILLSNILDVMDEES
T1 sequence (O00329 whole entry): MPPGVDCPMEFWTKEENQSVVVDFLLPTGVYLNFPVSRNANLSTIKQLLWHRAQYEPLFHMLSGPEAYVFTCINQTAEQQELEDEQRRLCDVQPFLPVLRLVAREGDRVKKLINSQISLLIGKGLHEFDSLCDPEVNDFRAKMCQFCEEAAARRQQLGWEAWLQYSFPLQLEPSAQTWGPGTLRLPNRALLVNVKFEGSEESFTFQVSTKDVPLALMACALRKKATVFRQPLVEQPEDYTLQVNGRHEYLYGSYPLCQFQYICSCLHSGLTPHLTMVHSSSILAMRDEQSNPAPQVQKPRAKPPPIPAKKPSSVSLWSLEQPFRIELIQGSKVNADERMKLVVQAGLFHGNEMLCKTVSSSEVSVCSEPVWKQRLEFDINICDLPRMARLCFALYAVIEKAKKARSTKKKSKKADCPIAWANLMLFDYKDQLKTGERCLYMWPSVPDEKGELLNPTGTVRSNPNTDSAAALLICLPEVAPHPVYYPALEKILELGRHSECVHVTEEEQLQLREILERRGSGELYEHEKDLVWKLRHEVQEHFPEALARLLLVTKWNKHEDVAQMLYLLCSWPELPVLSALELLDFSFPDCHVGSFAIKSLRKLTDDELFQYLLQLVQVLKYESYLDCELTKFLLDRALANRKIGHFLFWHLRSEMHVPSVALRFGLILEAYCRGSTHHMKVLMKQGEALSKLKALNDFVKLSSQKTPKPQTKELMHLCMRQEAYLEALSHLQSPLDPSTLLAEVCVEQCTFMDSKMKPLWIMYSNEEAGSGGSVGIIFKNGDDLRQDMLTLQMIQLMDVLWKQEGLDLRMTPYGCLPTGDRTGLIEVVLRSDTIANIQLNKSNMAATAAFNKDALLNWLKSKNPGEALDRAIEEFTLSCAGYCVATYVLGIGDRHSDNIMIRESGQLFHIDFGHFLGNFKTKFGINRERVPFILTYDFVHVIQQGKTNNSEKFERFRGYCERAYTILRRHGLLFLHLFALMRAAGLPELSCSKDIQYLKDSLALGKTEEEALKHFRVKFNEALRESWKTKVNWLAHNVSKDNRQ
T1 sequence (P27986 whole entry partner): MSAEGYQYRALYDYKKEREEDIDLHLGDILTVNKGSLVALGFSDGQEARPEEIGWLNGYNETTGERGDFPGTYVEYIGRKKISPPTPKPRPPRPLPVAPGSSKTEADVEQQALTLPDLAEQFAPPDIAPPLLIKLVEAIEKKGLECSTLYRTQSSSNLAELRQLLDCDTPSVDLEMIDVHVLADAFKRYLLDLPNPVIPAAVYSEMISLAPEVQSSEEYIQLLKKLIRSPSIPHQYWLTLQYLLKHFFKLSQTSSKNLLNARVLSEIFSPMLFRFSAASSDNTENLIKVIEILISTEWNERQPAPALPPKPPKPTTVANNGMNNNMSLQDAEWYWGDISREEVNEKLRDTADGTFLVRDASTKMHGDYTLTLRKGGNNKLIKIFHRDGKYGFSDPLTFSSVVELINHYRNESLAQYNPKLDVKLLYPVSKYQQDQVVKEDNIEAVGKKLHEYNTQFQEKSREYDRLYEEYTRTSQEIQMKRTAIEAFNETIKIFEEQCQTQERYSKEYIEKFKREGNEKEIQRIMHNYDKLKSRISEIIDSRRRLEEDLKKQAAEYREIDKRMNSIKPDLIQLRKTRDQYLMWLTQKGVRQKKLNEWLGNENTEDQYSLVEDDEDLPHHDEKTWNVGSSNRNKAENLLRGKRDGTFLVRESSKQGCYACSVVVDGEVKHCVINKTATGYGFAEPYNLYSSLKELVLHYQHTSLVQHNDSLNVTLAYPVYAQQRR

| IC50 (PI3Kδ) [nM] | IC50 (BTK) [nM] | PI3Kδ @ 0.1 μM (% Inh) (PI3Kδ; 10 μM ATP) | PI3Kδ @ 1 μM (% Inh) (PI3Kδ; 10 μM ATP) | BTK @ 0.1 μM (% Inh) (BTK; 10 μM ATP) | BTK @ 1 μM (% Inh) (BTK; 10 μM ATP) | PI3Kδ @ 0.01 μM (% Inh) (PI3Kδ; 0.01 μM compound, 10 μM ATP) | BTK @ 0.01 μM (% Inh) (BTK; 0.01 μM compound, 10 μM ATP) | Structure (SMILES) |
| --- | --- | --- | --- | --- | --- | --- | --- | --- |
| 157 | 2020 |  |  |  |  |  |  | Nc1ncnc2c1c(-c1cn[nH]c1)nn2C1CCc2ccccc2C1 (racemic) [compound 20, 3-(1H-pyrazol-4-yl)-1-(1,2,3,4-tetrahydronaphthalen-2-yl)-1H-pyrazolo[3,4-d]pyrimidin-4-amine] |
| 7.9 | 217 |  |  |  |  |  |  | COc1ccc(-c2nn(C3CCc4ccccc4C3)c3ncnc(N)c23)cc1F (racemic) [Compound No. 14, 3-(3-fluoro-4-methoxyphenyl)-1-(1,2,3,4-tetrahydronaphthalen-2-yl)-1H-pyrazolo[3,4-d]pyrimidin-4-amine] |
| 924 | 840 | 22.41 | 72.03 | 27.64 | 72.19 |  |  | Nc1ncnc2c1c(-c1cccc(CO)c1)nn2C1Cc2ccccc2C1 [Compound No. 54, {3-[4-amino-1-(2,3-dihydro-1H-inden-2-yl)-1H-pyrazolo[3,4-d]pyrimidin-3-yl]phenyl}methanol] |
|  |  | 51.63 |  | 23.12 |  |  |  | COc1ccc(-c2nn(C3CCc4ccccc43)c3ncnc(N)c23)cc1OC (stereo not drawn) [compound 34, 1-(2,3-dihydro-1H-inden-1-yl)-3-(3,4-dimethoxyphenyl)-1H-pyrazolo[3,4-d]pyrimidin-4-amine] |
| 65.7 | 422 | 73.20 | 98.33 | 41.05 | 82.76 |  |  | Nc1ncnc2c1c(-c1cc(O)cc(F)c1)nn2C1Cc2cc(F)ccc2C1=O (stereo not drawn) [compound 51, 2-[4-amino-3-(3-fluoro-5-hydroxyphenyl)-1H-pyrazolo[3,4-d]pyrimidin-1-yl]-5-fluoro-2,3-dihydro-1H-inden-1-one] |
|  |  | 51.48 |  | 21.87 |  | 16.23 | 9.24 | Nc1ncnc2c1c(-c1cc(O)c(F)c(F)c1)nn2C1Cc2cc(F)ccc2C1=O (stereo not drawn) [compound 127, 2-[4-amino-3-(3,4-difluoro-5-hydroxyphenyl)-1H-pyrazolo[3,4-d]pyrimidin-1-yl]-5-fluoro-2,3-dihydro-1H-inden-1-one] |
|  |  | 4.7 |  | 13.54 |  |  |  | NC(=O)c1cccc(-c2nn(C3CCc4ccccc4C3)c3ncnc(N)c23)c1 (stereo not drawn) [compound 27, 3-(4-amino-1-tetralin-2-yl-pyrazolo[3,4-d]pyrimidin-3-yl)benzamide] |
|  |  | −1.66 | 16.5 | 24.85 | 76.64 |  |  | CCOc1c(Cl)cc(-c2nn(C3Cc4ccccc4C3)c3ncnc(N)c23)cc1OC [Compound No. 77, 3-(3-chloro-4-ethoxy-5-methoxyphenyl)-1-(2,3-dihydro-1H-inden-2-yl)-1H-pyrazolo[3,4-d]pyrimidin-4-amine] |
|  |  | 6.45 | 12.1 | 7.61 | 9.02 |  |  | CCOc1cc(-c2nn(C3Cc4ccccc4C3)c3ncnc(N)c23)cc(Cl)c1OC(C)C [Compound No. 79, 3-[3-chloro-5-ethoxy-4-(propan-2-yloxy)phenyl]-1-(2,3-dihydro-1H-inden-2-yl)-1H-pyrazolo[3,4-d]pyrimidin-4-amine] |
|  |  | 17.28 | 43.03 | 57.13 | 91.61 |  |  | COc1cc(F)cc(-c2cn(C3Cc4ccccc4C3)c3ncnc(N)c23)c1 [Compound No. 62, 7-(2,3-dihydro-1H-inden-2-yl)-5-(3-fluoro-5-methoxyphenyl)-7H-pyrrolo[2,3-d]pyrimidin-4-amine] |
